Laboratory results taken from US6942874B2, “Nucleotide compounds that block the bitter taste of oral compositions” (Linguagen Corp., priority 2001, dated 2005).

Tested on: transducin
Experiment: [35S] GTPγS binding assay: transducin activation by bitter-stimulated taste membranes
Format: biochemical, bovine
Text: Since G proteins have an intrinsic GTPase activity, which terminates the activation cycle, a radioactive nonhydrolyzable analogue of GTR such as [^35S] GTPγS or [^3H] GppNHp must be used. To test for the inhibitory activity of nucleotide compounds, several modifications of the standard [^35S] GTPγS binding assay were made to efficiently measure activation by bitter responsive receptors that couple to gustducin or transducin ([…] et al., in preparation). To maximize the bitter dependent change in radiolabel uptake GDP:GTPγS ratios, buffer composition, and specific activity of the [^35S] GTPγS were adjusted. […] Radionucleotide bound to transducin can be measured by filter binding followed by washing to remove unbound label (Asano et al., 1984 Biochemistry 23:5460-5467). The final concentrations in the [^35S] GTPγS binding assay mix are 10 mM HEPES pH 7.5, 5 mM MgCl2, 50 mM NaCl, 1 mM dithiolthreitol, 10 μM GDP, 1 μM [^35S] GTPγS (0.1 μCi/sample), 0.5 μg/0.05 ml transducin heterotrimer. A 2× stock of the above mixture is added to the bitter compound. Reactions are started by addition of 5 μg/0.05 ml bovine circumvallate membranes and the sample volume is adjusted to […] with water. Samples are incubated at room temperature (25±2° C. for 2 hours). Long incubation times are necessary due to the low density of receptors in the membranes. Similar results are obtained with high dilutions of rhodopsin. Samples are then filtered through BA-85 nitrocellulose filters and washed 3 times with 3 ml of 50 mM Tris-HCl pH 7.5, 4 mM MgCl2, and 0.1 M NaCl. Filters are dried, placed in scintillation fluid and the radioactivity is determined by scintillation counting. Experiments are performed in triplicate with several concentrations of the tastant of interest. Controls include: (i) a rhodopsin positive control, (ii) a no tastant negative control and (iii) a no membrane control +/-tastants.

CC[N+](CC)(CC(=O)Nc1c(C)cccc1C)Cc1ccccc1 [denatonium]
[35S] GTPγS radiolabel binding to transducin (10 mM, with circumvallate membranes, vs membranes alone, Student's t-test, FIG. 1A): increased radiolabel binding
activation of transducin relative to maximal rhodopsin stimulated [35S] GTPγS binding (denatonium 10 mM, with bovine circumvallate membranes, FIG. 1A): ~40%
concentration dependence of transducin activation (in the presence of circumvallate membranes, FIG. 1B): concentration dependent activation of transducin
